From patent US7892312B2, “Nitrification inhibitor and soil improver and fertilizer containing the same” (priority 2005, dated 2011) come the findings set out here.

In this experiment the test system is Nitrosomonas europaea IF014298. The experiment is described as follows: in-vitro nitrification bacteria biological luminescence test. The format is cell-based. As to the method: Observation was conducted using in-vitro nitrification bacteria. Explanation is first made of preparation of suspension of the nitrification bacteria used for observation.
The nitrification bacteria (Nitrosomonas europaea IF014298. See Non-Patent Reference 4.) with a bacteria-origin luciferase gene (luxAB) introduced therein was aerobically cultivated in P culture media containing 25 mg/1000 cm^3 of kanamycin at 30° C. for 7-9 days, and after washing, suspended in fresh P culture media, thereby nitrification bacteria suspension was prepared. This nitrification bacteria suspension was kept in the dark place for 30 minutes or longer before experiment.
The composition of P culture media consists of 2.5 g of (NH4)2SO4, 0.7 g of KH2PO4, 13.5 g of Na2HPO4, 0.5 g of NaHCO3, 100 mg of MgSO4-7H2O, 5 mg of CaCl2-2H2O, 1 mg of Fe-EDTA, and 1000 cm^3 of water, and its pH was 8.0.
Nitrification function was evaluated by, after mixing in-vitro the aqueous solution of nitrification bacteria suspension consisting of 0.25 cm^3 of said nitrification bacteria suspension and 0.2 cm^3 of water and 0.01 cm^3 of the sample solution of each Example and Comparative Example, measuring biological luminescence accompanying nitrification reaction during cultivation at 15° C. for 30 minutes using a luminometer (Turner Designs, TD20/20). […] Therefore, the luminescence of the case where a sample solution of each Example and Comparative Example is added to the aqueous solution of nitrification bacteria suspension divided by the luminescence of the case of aqueous bacteria suspension without addition of a sample solution of each Example and Comparative Example was defined as nitrification-inhibitory ratio.
The concentration of sample solutions of each Example and Comparative Example in this case was 20 ppm.
Measurement was conducted as mentioned above with the concentration of sample solutions of each Example and Comparative Example in the aqueous nitrification bacteria suspension varying 0-20 ppm.

Where [1] appears, read: sample concentration 20 ppm, 15° C., 30 minutes.

For the compound `CCCCC/C=C\C/C=C\C/C=C\C/C=C\CCCC(=O)O` [arachidonic acid, reference compound], the “inhibition of nitrification reaction (in words)” value (“inhibition … (in words)” below) (sample concentration 20 ppm) is recorded as “not inhibited”.
Take `N#CN=C(N)N` [dicyandiamide, reference compound]: the “80% inhibition concentration (concentration at which nitrification-inhibitory ratio was 80%)” value is reported as 185 ppm.
Turning to `CCCCC/C=C\C/C=C\CCCCCCCC(=O)OCC` [ethyl linoleate, reference compound], the “inhibition … (in words)” value (sample concentration 20 ppm) was “not inhibited”.
For `CCCCC/C=C\C/C=C\CCCCCCCC(=O)O` [linoleic acid], the “80% inhibition concentration (concentration at which nitrification-inhibitory ratio was 80%)” value is recorded as “about 16 ppm”. In addition, the nitrification-inhibitory ratio (sample concentration 8 ppm) is given as 40%. Further, the nitrification-inhibitory ratio (sample concentration 12 ppm) came out at 65%. Besides, for the setting “sample concentration 16 ppm”, the nitrification-inhibitory ratio is reported as 90%. Moreover, the nitrification-inhibitory ratio under setting [1] worked out at 95%.
Consider `CCCCC/C=C\C/C=C\CCCCCCCC(=O)OC` [methyl linoleate], for which the “80% inhibition concentration (concentration at which nitrification-inhibitory ratio was 80%)” value is reported as approximately 8 ppm. Under “sample concentration 8 ppm”, the nitrification-inhibitory ratio was determined as 80%. The nitrification-inhibitory ratio (sample concentration 12 ppm) came out at 90%. Also, under “sample concentration 16 ppm”, the nitrification-inhibitory ratio was found to be 92%. Besides, the nitrification-inhibitory ratio under setting [1] was found to be 95%.
Turning to `CCCCCCCC/C=C\CCCCCCCC(=O)OC` [methyl oleate, reference compound], the “inhibition … (in words)” value (sample concentration 20 ppm) is on record as “not inhibited”.
Still for that read-out and setting: the same measure for `CC/C=C\C/C=C\C/C=C\CCCCCCCC(=O)OC` [methyl α-linolenate, reference compound]: “not inhibited”.
In the case of `Clc1cccc(C(Cl)(Cl)Cl)n1` [nitrapyrin, 2-chloro-6-Trichloromethylpyridine, reference compound], the “80% inhibition concentration (concentration at which nitrification-inhibitory ratio was 80%)” value was 4 ppm.
For `CCCCCCCC/C=C\CCCCCCCC(=O)O` [oleic acid, reference compound], the “inhibition … (in words)” value (sample concentration 20 ppm) is given as “not inhibited”.
On the same count and under the same terms, the same measure for `CCCCCCCCCCCCCCCCCC(=O)O` [stearic acid, reference compound]: “not inhibited”.
For the compound `CC/C=C\C/C=C\C/C=C\CCCCCCCC(=O)O` [α-linolenic acid], the “80% inhibition concentration (concentration at which nitrification-inhibitory ratio was 80%)” value is given as approximately 12 ppm. Also, the nitrification-inhibitory ratio (sample concentration 8 ppm) is 40%. Also, the nitrification-inhibitory ratio (sample concentration 12 ppm) is reported as 80%. Moreover, the nitrification-inhibitory ratio (sample concentration 16 ppm) came to 90%. Also, under setting [1], the nitrification-inhibitory ratio turned out to be 95%.
For `CCCCC/C=C\C/C=C\C/C=C\CCCCC(=O)O` [γ-linolenic acid], in that order: “about 16 ppm”, 30%, 72%, 90% and 95%.
